This note sets out measurements from patent US20250250282A1, “NOVEL SEVEN-MEMBERED RING-FUSED COMPOUNDS” (PRISM Biolab Co., Ltd., priority 2022, published 2025).

The subject of this assay is CellSensor T-REx NICD CSL-bla HeLa cell line (Notch response element driving beta-lactamase reporter). In words: Notch assay (CSL-bla beta-lactamase reporter, DOX-inducible NICD). Format: cell-based. To be noted: Homo sapiens; 10 μM compound; HeLa/T-REx NICD CSL-bla cells, doxycycline-induced, 16-20 hours incubation; blue/green emission ratio. The procedure:
We used the CellSensor T-REx™ NICD CSL-bla HeLa cell line, which was engineered by lentiviral transduction of HeLa cells with a Notch response element driving beta-lactamase reporter gene expression (CSL-bla) along with DOX (doxycycline)-inducible NICD (Notch intracellular domain) constructs. Addition of DOX to these cells allows for regulated NICD transcription factor expression and subsequent beta-lactamase expression.
Specifically, the following protocol was used.
• 1. Plate Cells: 32 μL/well of HeLa/T-REx™ NICD CSL-bla cells at 10^3 cells/well complete medium into 384-well plate. • 2. Prepare 10× compounds in assay medium. • 3. Add 4 μL compounds or 1% DMSO in assay medium to the cells. • 4. Add 4 μL 10× Doxycycline in Assay Medium to the treated wells, and 4 μL Assay Medium to the Untreated and cell free control wells. • 5. Incubate the assay plate in a humidified 37° C./5% CO2 incubator for 16-20 hours. • 6. Preparation of 6× LiveBLAzer™-FRET B/G Substrate (CCF4-AM) Mixture according to the manual and cell loading should be done in the absence of direct strong lighting. • 7. Remove assay plate from the humidified 37° C./5% CO2 incubator. Add 8 μl of 6× Substrate Mixture from […] to each well. Cover the plate to protect it from light and evaporation. Incubate at room temperature for 4 hours. • 8. Reading an Assay Plate using the following filter selections:
• 9. Data analysis: Use the assay plate layout to identify the location of the Cell-free wells. These control wells are used for background subtraction. Determine the average emission from the Cell-free wells at both 460 nm (Average Blue Background) and 530 nm (Average Green Background). Subtract the Average Blue Background (data collected at 460 nm) from all of the blue emission data. Subtract the Average Green background (data collected at 530 nm) from all of the green emission data. Calculate the Blue/Green Emission Ratio for each well, by dividing the background-subtracted blue emission values by the background-subtracted green emission values.

For `O=C1[C@H](Cc2ccccc2)CN2C(=O)CCN(C(=O)NCC3CCCCC3)C2CN1Cc1cccc2ccccc12` (stereo partly drawn) [ID-16, (7R)-7-benzyl-N-(cyclohexylmethyl)-9-(naphthalen-1-ylmethyl)-4,8-dioxooctahydropyrimido[1,2-a][1,4]diazepine-1(2H)-carboxamide], the inhibition (commonly how much of the control response was suppressed) at 10 µM was found to be 60.2%.

For the compound `C[C@@H]1CN2C(=O)c3sccc3N(C(=O)NCCC(c3ccccc3)c3ccccc3)C2CN(Cc2ccc3ccccc3c2)C1=O` (stereo partly drawn) [ID-29, (8R)—N-(3,3-diphenylpropyl)-8-methyl-6-(naphthalen-2-ylmethyl)-7,11-dioxo-4a,5,6,7,8,9-hexahydrothieno[3′,2′:4,5]pyrimido[1,2-a][1,4]diazepine-4(11H)-carboxamide], the inhibition at 10 µM turned out to be 56.7%.

In the case of `CC(C)CCN1CC2N(C[C@@H](CC(C)C)C1=O)C(=O)c1sccc1N2C(=O)NCc1cccc2ccccc12` (stereo partly drawn) [ID-25, (8R)-8-isobutyl-6-isopentyl-N-(naphthalen-1-ylmethyl)-7,11-dioxo-4a,5,6,7,8,9-hexahydrothieno[3′,2′:4,5]pyrimido[1,2-a][1,4]diazepine-4(11H)-carboxamide], the inhibition at 10 µM is 52.8%.

Turning to `O=C1[C@H](Cc2ccc(O)cc2)CN2C(=O)c3sccc3N(C(=O)NCCc3ccccc3)C2CN1Cc1cccc2ccccc12` (stereo partly drawn) [ID-22, (8R)-8-(4-hydroxybenzyl)-6-(naphthalen-1-ylmethyl)-7,11-dioxo-N-phenethyl-4a,5,6,7,8,9-hexahydrothieno[3′,2′:4,5]pyrimido[1,2-a][1,4]diazepine-4(11H)-carboxamide], the inhibition at 10 µM is 56.2%.

With `CC(C)COC(=O)N1c2ccsc2C(=O)N2C[C@@H](Cc3ccc(O)cc3)C(=O)N(Cc3cccc4ccccc34)CC21` (stereo partly drawn) [ID-38, isobutyl (8R)-8-(4-hydroxybenzyl)-6-(naphthalen-1-ylmethyl)-7,11-dioxo-4a,5,6,7,8,9-hexahydrothieno[3′,2′:4,5]pyrimido[1,2-a][1,4]diazepine-4(11H)-carboxylate], the inhibition at 10 µM was determined as 52.4%.

In the case of `O=C1[C@H](Cc2ccc(O)cc2)CN2C(=O)c3sccc3N(C(=O)NCc3cccc4ccccc34)C2CN1CC1CCCCC1` (stereo partly drawn) [ID-27, (8R)-6-(cyclohexylmethyl)-8-(4-hydroxybenzyl)-N-(naphthalen-1-ylmethyl)-7,11-dioxo-4a,5,6,7,8,9-hexahydrothieno[3′,2′:4,5]pyrimido[1,2-a][1,4]diazepine-4(11H)-carboxamide], the inhibition at 10 µM was found to be 54.4%.

In the case of `CC(C)C[C@@H]1CN2C(=O)CCN(C(=O)NCCC(c3ccccc3)c3ccccc3)C2CN(CCc2ccccc2)C1=O` (stereo partly drawn) [ID-10, (7R)—N-(3,3-diphenylpropyl)-7-isobutyl-4,8-dioxo-9-phenethyloctahydropyrimido[1,2-a][1,4]diazepine-1(2H)-carboxamide], the inhibition at 10 µM is 50.3%.

With `CC(C)[C@@H]1CN2C(=O)CCN(C(=O)NCCC(c3ccccc3)c3ccccc3)C2CN(Cc2ccc3ccccc3c2)C1=O` (stereo partly drawn) [ID-14, (7R)—N-(3,3-diphenylpropyl)-7-isopropyl-9-(naphthalen-2-ylmethyl)-4,8-dioxooctahydropyrimido[1,2-a][1,4]diazepine-1(2H)-carboxamide], the inhibition at 10 µM was determined as 62.4%.

`O=C1[C@H](Cc2ccccc2)CN2C(=O)CCN(C(=O)NCCC(c3ccccc3)c3ccccc3)C2CN1Cc1ccccc1` (stereo partly drawn) [ID-08, (7R)-7,9-dibenzyl-N-(3,3-diphenylpropyl)-4,8-dioxooctahydropyrimido[1,2-a][1,4]diazepine-1(2H)-carboxamide]: the inhibition at 10 µM came to 64.9%.

For the compound `CCCCN1CC2N(C[C@@H](Cc3ccc(O)cc3)C1=O)C(=O)c1sccc1N2C(=O)NCc1ccc(C)cc1` (stereo partly drawn) [ID-36, (8R)-6-butyl-8-(4-hydroxybenzyl)-N-(4-methylbenzyl)-7,11-dioxo-4a,5,6,7,8,9-hexahydrothieno[3′,2′:4,5]pyrimido[1,2-a][1,4]diazepine-4(11H)-carboxamide], the inhibition at 10 µM stood at 55.9%.

Regarding `O=C1[C@H](Cc2ccc(O)cc2)CN2C(=O)CCN(C(=O)NCCC(c3ccccc3)c3ccccc3)C2CN1CCc1ccccc1` (stereo partly drawn) [ID-11, (7R)—N-(3,3-diphenylpropyl)-7-(4-hydroxybenzyl)-4,8-dioxo-9-phenethyloctahydropyrimido[1,2-a][1,4]diazepine-1(2H)-carboxamide], the inhibition at 10 µM stood at 64.1%.

Take `CCCCN1CC2N(C[C@@H](Cc3ccccc3)C1=O)C(=O)CCN2C(=O)NCCC(c1ccccc1)c1ccccc1` (stereo partly drawn) [ID-04, (7R)-7-benzyl-9-butyl-N-(3,3-diphenylpropyl)-4,8-dioxooctahydropyrimido[1,2-a][1,4]diazepine-1(2H)-carboxamide]: the inhibition at 10 µM turned out to be 54.7%.

With `CC(C)CCN1CC2N(C[C@@H](Cc3ccccc3)C1=O)C(=O)CCN2C(=O)NCCC(c1ccccc1)c1ccccc1` (stereo partly drawn) [ID-06, (7R)-7-benzyl-N-(3,3-diphenylpropyl)-9-isopentyl-4,8-dioxooctahydropyrimido[1,2-a][1,4]diazepine-1(2H)-carboxamide], the inhibition at 10 µM turned out to be 51.8%.

Regarding `O=C1[C@H](Cc2ccc(O)cc2)CN2C(=O)CCN(C(=O)NCC3CCCCC3)C2CN1Cc1cccc2ccccc12` (stereo partly drawn) [ID-15, (7R)—N-(cyclohexylmethyl)-7-(4-hydroxybenzyl)-9-(naphthalen-1-ylmethyl)-4,8-dioxooctahydropyrimido[1,2-a][1,4]diazepine-1(2H)-carboxamide], the inhibition at 10 µM is 57.5%.

In the case of `O=C1[C@H](Cc2ccc(O)cc2)CN2C(=O)c3sccc3N(C(=O)NCC3CCCCC3)C2CN1Cc1cccc2cccnc12` (stereo partly drawn) [ID-30, (8R)—N-(cyclohexylmethyl)-8-(4-hydroxybenzyl)-7,11-dioxo-6-(quinolin-8-ylmethyl)-4a,5,6,7,8,9-hexahydrothieno[3′,2′:4,5]pyrimido[1,2-a][1,4]diazepine-4(11H)-carboxamide], the inhibition at 10 µM is 61.2%.

Regarding `CCCCN1CC2N(C[C@@H](Cc3ccc(O)cc3)C1=O)C(=O)c1sccc1N2C(=O)NCc1ccc2c(c1)OCO2` (stereo partly drawn) [ID-32, (8R)—N-(benzo[d][1,3]dioxol-5-ylmethyl)-6-butyl-8-(4-hydroxybenzyl)-7,11-dioxo-4a,5,6,7,8,9-hexahydrothieno[3′,2′:4,5]pyrimido[1,2-a][1,4]diazepine-4(11H)-carboxamide], the inhibition at 10 µM came to 52.5%.

Turning to `CC(C)[C@@H]1CN2C(=O)c3sccc3N(C(=O)NCc3cccs3)C2CN(Cc2ccc3ccccc3c2)C1=O` (stereo partly drawn) [ID-35, (8R)-8-isopropyl-6-(naphthalen-2-ylmethyl)-7,11-dioxo-N-(thiophen-2-ylmethyl)-4a,5,6,7,8,9-hexahydrothieno[3′,2′:4,5]pyrimido[1,2-a][1,4]diazepine-4(11H)-carboxamide], the inhibition at 10 µM stood at 54.9%.

With `CCCCN1CC2N(C[C@@H](CC(C)C)C1=O)C(=O)c1sccc1N2C(=O)NCc1cccc2ccccc12` (stereo partly drawn) [ID-24, (8R)-6-butyl-8-isobutyl-N-(naphthalen-1-ylmethyl)-7,11-dioxo-4a,5,6,7,8,9-hexahydrothieno[3′,2′:4,5]pyrimido[1,2-a][1,4]diazepine-4(11H)-carboxamide], the inhibition at 10 µM is 51.1%.

With `CC(C)CCN1CC2N(C[C@@H](Cc3ccc(O)cc3)C1=O)C(=O)c1sccc1N2C(=O)NCc1ccc2c(c1)OCO2` (stereo partly drawn) [ID-33, (8R)—N-(benzo[d][1,3]dioxol-5-ylmethyl)-8-(4-hydroxybenzyl)-6-isopentyl-7,11-dioxo-4a,5,6,7,8,9-hexahydrothieno[3′,2′:4,5]pyrimido[1,2-a][1,4]diazepine-4(11H)-carboxamide], the inhibition at 10 µM worked out at 68.2%.

For the compound `Cc1ccc(CNC(=O)N2c3ccsc3C(=O)N3C[C@@H](Cc4ccc(O)cc4)C(=O)N(CCC(C)C)CC32)cc1` (stereo partly drawn) [ID-37, (8R)-8-(4-hydroxybenzyl)-6-isopentyl-N-(4-methylbenzyl)-7,11-dioxo-4a,5,6,7,8,9-hexahydrothieno[3′,2′:4,5]pyrimido[1,2-a][1,4]diazepine-4(11H)-carboxamide], the inhibition at 10 µM came to 66.3%.

For the compound `CC(C)[C@@H]1CN2C(=O)CCN(C(=O)NCCC(c3ccccc3)c3ccccc3)C2CN(CCc2ccccc2)C1=O` (stereo partly drawn) [ID-09, (7R)—N-(3,3-diphenylpropyl)-7-isopropyl-4,8-dioxo-9-phenethyloctahydropyrimido[1,2-a][1,4]diazepine-1(2H)-carboxamide], the inhibition at 10 µM was 54.1%.

For the compound `C[C@@H]1CN2C(=O)CCN(C(=O)NCc3cccc4ccccc34)C2CN(CC2CCCCC2)C1=O` (stereo partly drawn) [ID-03, (7R)-9-(cyclohexylmethyl)-7-methyl-N-(naphthalen-1-ylmethyl)-4,8-dioxooctahydropyrimido[1,2-a][1,4]diazepine-1(2H)-carboxamide], the inhibition at 10 µM amounted to 53.4%.

`CC(C)[C@@H]1CN2C(=O)CCN(C(=O)NCc3ccccc3)C2CN(Cc2ccc3ccccc3c2)C1=O` (stereo partly drawn) [ID-01, (7R)—N-benzyl-7-isopropyl-9-(naphthalen-2-ylmethyl)-4,8-dioxooctahydropyrimido[1,2-a][1,4]diazepine-1(2H)-carboxamide]: the inhibition at 10 µM amounted to 54.7%.
